Results reported in PubChem BioAssay AID248 (DTP/NCI, 2004).
Where “and” joins values, the source holds several entries; their conditions need not be identical. Equal entries are not always repeated. Inconclusive results and toxic doses are left out. Rule as the data show it: active = T/C of 150% or more; inactive = T/C below 125%.

Tested on: L1210 leukemia ip in BDF1 mice, survival T/C
Assay: NCI In Vivo Anticancer Drug Screen. Data for tumor model L1210 Leukemia (intraperitoneal) in B6D2F1 (BDF1) mice
Conditions: endpoint: mean survival time, higher = longer survival
Procedure, shortened: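 Survival endpoint. Drug-treated group vs vehicle group, expressed as T divided by C. Tumor passaged by transplantation.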

[1] = dose: 50.0 mg/kg/injection, schedule: Q01DX009 (ip), vehicle: saline with Tween-80
[2] = dose: 100.0 mg/kg/injection, schedule: Q01DX001 (ip), vehicle: saline
[3] = dose: 100.0 mg/kg/injection, schedule: Q01DX009 (ip), vehicle: saline with Tween-80
[4] = dose: 200.0 mg/kg/injection, schedule: Q01DX001 (ip), vehicle: saline
[5] = dose: 200.0 mg/kg/injection, schedule: Q01DX009 (ip), vehicle: saline with Tween-80
[6] = dose: 400.0 mg/kg/injection, schedule: Q01DX001 (ip), vehicle: saline
[7] = dose: 400.0 mg/kg/injection, schedule: Q01DX009 (ip), vehicle: saline with Tween-80
[8] = dose: 100.0 mg/kg/injection, schedule: Q04DX003 (ip), vehicle: saline with Tween-80
[9] = dose: 200.0 mg/kg/injection, schedule: Q04DX003 (ip), vehicle: saline with Tween-80
[10] = dose: 100.0 mg/kg/injection, schedule: Q01DX001 (ip), vehicle: other
[11] = dose: 100.0 mg/kg/injection, schedule: Q04DX002 (ip), vehicle: Klucel (hydroxypropylcellulose) (HPC)
[12] = dose: 200.0 mg/kg/injection, schedule: Q01DX001 (ip), vehicle: other
[13] = dose: 200.0 mg/kg/injection, schedule: Q04DX002 (ip), vehicle: Klucel (hydroxypropylcellulose) (HPC)
[14] = dose: 400.0 mg/kg/injection, schedule: Q01DX001 (ip), vehicle: other
[15] = dose: 400.0 mg/kg/injection, schedule: Q04DX002 (ip), vehicle: Klucel (hydroxypropylcellulose) (HPC)
[16] = dose: 400.0 mg/kg/injection, schedule: Q04DX003 (ip), vehicle: saline with Tween-80
[17] = dose: 100.0 mg/kg/injection, schedule: Q04DX003 (ip), vehicle: Klucel (hydroxypropylcellulose) (HPC)

Measured: T/C

CN(C)N=Nc1ccc(Cl)cc1
inactive: dose: 37.5 mg/kg/injection, schedule: Q04DX003 (ip), vehicle: saline with Tween-80 96 % of control | dose: 50.0 mg/kg/injection, schedule: Q01DX001 (ip), vehicle: saline with Tween-80 106 % of control | [1] 86 % of control | dose: 75.0 mg/kg/injection, schedule: Q04DX003 (ip), vehicle: saline with Tween-80 97 % of control | dose: 100.0 mg/kg/injection, schedule: Q01DX001 (ip), vehicle: saline with Tween-80 104 % of control | [2] 103 % of control | [3] 87 % of control | dose: 150.0 mg/kg/injection, schedule: Q04DX003 (ip), vehicle: saline with Tween-80 104 % of control | dose: 200.0 mg/kg/injection, schedule: Q01DX001 (ip), vehicle: saline with Tween-80 113 % of control | [4] 107 % of control | [5] 90 % of control | dose: 300.0 mg/kg/injection, schedule: Q04DX003 (ip), vehicle: saline with Tween-80 108 % of control | [6] 97 % of control | [7] 91 % of control

Brc1ccc(N=C2NN=CC2(c2ccccc2)c2ccccc2)cc1
inactive: dose: 100.0 mg/kg/injection, schedule: Q01DX001 (ip), vehicle: carboxymethylcellulose (CMC) 94 % of control | dose: 200.0 mg/kg/injection, schedule: Q01DX001 (ip), vehicle: carboxymethylcellulose (CMC) 88 % of control | dose: 400.0 mg/kg/injection, schedule: Q01DX001 (ip), vehicle: carboxymethylcellulose (CMC) 88 % of control

COc1ccc2nc(C)oc2c1
inactive: dose: 100.0 mg/kg/injection, schedule: Q04DX003 (ip), vehicle: acetone 97 % of control | dose: 200.0 mg/kg/injection, schedule: Q04DX003 (ip), vehicle: acetone 95 % of control | dose: 400.0 mg/kg/injection, schedule: Q04DX003 (ip), vehicle: acetone 97 % of control

O=C(NC(=O)c1ccc(Cl)cc1)Nc1ccc(Cl)cc1C(F)(F)F
inactive: [1] 98 % of control | [3] 103 % of control | [5] 98 % of control

Fc1ccc(NC(=S)SCc2ccc(Cl)c(Cl)c2)cc1F
inactive: [1] 108 % of control | [8] 102 % of control | [5] 112 % of control | [9] 106 % of control

CCCCCCCCCCCC(N)=O
inactive: [10] 104 % of control | [11] 104 % of control | [12] 93 % of control | [13] 110 % of control | [14] 96 % of control | [15] 93 % of control

CC1(C)N=C(N)N=C(N)N1c1cccc(C(=O)Nc2ccc(S(=O)(=O)F)cc2)c1
inactive: dose: 0.8 mg/kg/injection, schedule: Q01DX009 (ip), vehicle: saline 98 % of control | dose: 4.0 mg/kg/injection, schedule: Q01DX009 (ip), vehicle: saline 101 % of control | dose: 20.0 mg/kg/injection, schedule: Q01DX009 (ip), vehicle: saline 98 % of control

COc1cccc(OC)c1C(c1c(OC)cccc1OC)c1c(OC)cccc1OC
inactive: [8] 95 % of control | [9] 91 % of control | [16] 101 % of control

Cc1ccc(NC(=O)c2cc([N+](=O)[O-])cc([N+](=O)[O-])c2)c(C)c1
inactive: [11] 94 % of control | [13] 94 % of control | [15] 91 % of control

CS/C(N)=N\S(=O)(=O)c1ccc(NC(C)=O)cc1
inactive: [8] 93 % of control | [9] 90 % of control | [16] 96 % of control

COC(=O)C(CSCSC)NC(=O)/C=C/c1cc(OC)ccc1OC (stereo not drawn)
inactive: [3] 87 % of control | [8] 94 % of control | [5] 93 % of control | [9] 88 % of control | [7] 93 % of control | [16] 94 % of control

COc1ccc2nc3c4ccccc4scc-3c2c1
inactive: [8] 92 % of control

Cc1cccc(C)c1NC(=O)NCCCl
inactive: dose: 50.0 mg/kg/injection, schedule: Q01DX001 (ip), vehicle: Klucel (hydroxypropylcellulose) (HPC) 97 % of control | dose: 100.0 mg/kg/injection, schedule: Q01DX001 (ip), vehicle: Klucel (hydroxypropylcellulose) (HPC) 108 % of control | dose: 100.0 mg/kg/injection, schedule: Q04DX003 (ip), vehicle: saline 105 % of control | dose: 200.0 mg/kg/injection, schedule: Q01DX001 (ip), vehicle: Klucel (hydroxypropylcellulose) (HPC) 101 % of control | dose: 200.0 mg/kg/injection, schedule: Q04DX003 (ip), vehicle: saline 97 % of control | dose: 400.0 mg/kg/injection, schedule: Q04DX003 (ip), vehicle: saline 100 % of control

CCCCNC(=S)NCCCN(C)C
inactive: [17] 101 % of control | dose: 200.0 mg/kg/injection, schedule: Q04DX003 (ip), vehicle: Klucel (hydroxypropylcellulose) (HPC) 98 % of control

NC(=S)N/N=C/c1ccc(Cl)cn1
inactive: dose: 7.33 mg/kg/injection, schedule: Q04DX003 (ip), vehicle: saline with Tween-80 97 % of control | dose: 11.0 mg/kg/injection, schedule: Q01DX001 (ip), vehicle: saline with Tween-80 95 % of control | dose: 11.0 mg/kg/injection, schedule: Q04DX003 (ip), vehicle: saline with Tween-80 104 % of control | dose: 16.5 mg/kg/injection, schedule: Q01DX001 (ip), vehicle: saline with Tween-80 105 % of control | dose: 16.5 mg/kg/injection, schedule: Q04DX003 (ip), vehicle: saline with Tween-80 116 % of control | dose: 25.0 mg/kg/injection, schedule: Q01DX001 (ip), vehicle: saline with Tween-80 111 % of control | dose: 25.0 mg/kg/injection, schedule: Q04DX003 (ip), vehicle: saline with Tween-80 121 % of control

c1ccc(N=C(c2ccccc2)c2ccccc2)cc1
inactive: dose: 50.0 mg/kg/injection, schedule: Q01DX001 (ip), vehicle: saline 102 % of control | [2] 98 % of control | [4] 98 % of control | [6] 102 % of control

COc1cc([N+](=O)[O-])cc(C=O)c1O
inactive: dose: 25.0 mg/kg/injection, schedule: Q04DX003 (ip), vehicle: Klucel (hydroxypropylcellulose) (HPC) 92 % of control | dose: 50.0 mg/kg/injection, schedule: Q04DX003 (ip), vehicle: Klucel (hydroxypropylcellulose) (HPC) 92 % of control | [17] 96 % of control and 101 % of control

COC(=O)c1cccc2c1-c1ccccc1C2=O
inactive: [10] 92 % of control | [12] 88 % of control | [14] 97 % of control

N#CCC1=Cc2ccccc2CC1
inactive: dose: 6.25 mg/kg/injection, schedule: Q01DX005 (ip), vehicle: saline 109 % of control | dose: 12.5 mg/kg/injection, schedule: Q01DX005 (ip), vehicle: saline 102 % of control | dose: 25.0 mg/kg/injection, schedule: Q01DX005 (ip), vehicle: saline 102 % of control | dose: 50.0 mg/kg/injection, schedule: Q01DX005 (ip), vehicle: saline 106 % of control and 107 % of control

CCCCCCCCCCCCC1CCCC(C)C1 (stereo not drawn)
inactive: dose: 25.0 mg/kg/injection, schedule: Q01DX009 (ip), vehicle: saline with Tween-80 89 % of control | [1] 99 % of control | [3] 92 % of control | dose: 100.0 mg/kg/injection, schedule: Q04DX002 (ip), vehicle: saline with Tween-80 105 % of control and 90 % of control | dose: 200.0 mg/kg/injection, schedule: Q04DX002 (ip), vehicle: saline with Tween-80 104 % of control and 90 % of control | [7] 90 % of control | dose: 800.0 mg/kg/injection, schedule: Q04DX002 (ip), vehicle: saline with Tween-80 97 % of control
